What was measured:
[1] = molecular target: T1, WEE1 kinase (Homo sapiens, UniProt P30291); experiment: Inhibitory effect of compound on WEE1 kinase in vitro (ELISA); assay type: biochemical; settings: ATP concentration of Km
T1 construct: purchased CarnaBiosciences, Inc. 05-177
Procedure: The tested compounds were screened on WEE1 kinase with ATP concentration of Km by ELISA. Compounds were screened on WEE1 kinase to evaluate the kinase inhibitory activity of the tested compounds. In the detection process, the initial concentration of the tested compounds was all selected as 100 nM, and each compound was selected with 6 gradient dilution concentrations, the gradient dilution ratio was 4-fold, and two replicate wells were detected for each concentration, MK1775 was used as the standard control.
WEE1, purchased from CarnaBiosciences, Inc., Item No. 05-177; dimethyl sulfoxide, purchased from Sigma-Aldrich, Item No. D8418; ATP, purchased from Sigma-Aldrich, Item No. A7699; DTT solution, purchased from Sigma-Aldrich, Item No. 43816; protein tyrosine kinase (PTK) substrate (poly-Glu-Tyr), purchased from Sigma-Aldrich, Item No. P4476; P-Tyr (PY99), purchased from Santa Cruz, Item No. sc-7020; Anti-mouse IgG HRP-linked Antibody, purchased from Santa Cruz, Item No. 7076S; TMB liquid Substrate System, purchased from Sigma-Aldrich, Item No. T0440; Costar Stripwell Microplate No Lid 1×8 Flat Bottom, Certified High Binding, purchased from Sigma-Aldrich, Item No. 42592; 96-well compound plate, purchased from Thermo Scientific, Item No. 267245.
• 1. Coating substrate: 1) An appropriate volume of substrate storage solution protein tyrosine kinase (PTK) substrate (poly-Glu-Tyr) was taken, diluted 10 times with PBS, and the concentration was diluted from […]. The mixture was added to a high adsorption 96-well plate at 125 μL per well. The plate was placed in an incubator at 37° C. for overnight coating. 2) After 24 hours, the 96-well plate was taken out, the liquid in the 96-well plate was poured out, cleaned with washing buffer for 3 times, and the incubator at 37° C. was inverted and dried for 2 hours. • 2. Compound preparation and transfer: 1) compound dilution: 10 mM of the test compound storage solution was taken, the compound in 96-well compound plate was diluted with DMSO in multiple steps to obtain the initial concentration of 100× compound as the first concentration, and then DMSO was used for 4-fold gradient dilution, for a total of 6 concentrations; after that, 2 μL of the gradient dilution solution was added to 48 μL of 1× reaction buffer respectively to prepare 4× compound; 2) 4× compounds were transferred: 10 μL of 4× compounds from the 96-well compound plate configured in the previous step were transferred into the dried high adsorption 96-well plate; 10 μL of the following liquids were added to the compound-free control wells and ATP-control wells: 2 μL of DMSO was added to 48 μL of 1× reaction buffer. • 3. Enzyme reaction stage: 1) WEE1 kinase and ATP were prepared into 2× enzyme solution and 4×ATP solution respectively with 1× reaction buffer. In this screening, the final concentration of WEE1 kinase was: 0.15 ng/μL and the final concentration of ATP was: […]; 2) 20 μL of enzyme solution of 2 was added to the high adsorption 96-well plate; 3) 10 μL of 4×ATP solution was added to the high adsorption 96-well plate and 10 μL of 1× reaction buffer was added to the ATP-control group; 4) the plate was placed in HERAEUS Multifuge X1R centrifuge at 2000 rpm for 20 s and then placed at room temperature and reacted for 60 min. • 4. Reaction termination stage: 1) the reaction mixture in the plate was poured out, 200 μL of washing buffer was added to each well, and washed for 5 times; the primary antibody P-Tyr (PY99) (dilution ratio 1:2000) was added, 100 μL per well, at room temperature for 30 min. 2) The primary antibody in the plate was poured out, 200 μL of washing buffer was added to each well, and washed for 5 times; the second antibody Anti-mouse IgG HRP-linked Antibody (dilution ratio 1:2000) was added, 100 μL per well, at room temperature for 30 min.

[2] = Bioavailability test in vivo in mice (pharmacokinetics, iv and intragastric); design: species or system ICR mice
Procedure: 404.6 μL of DMSO was added to the compound powder of the present disclosure until the compound was completely dissolved, and 50 mg/mL mother liquor was prepared in a clarified state.
The compound of the present disclosure: 24 μL of mother liquor was accurately measured, diluted to 4 mL according to the ratio of 0.9% normal saline:PEG400=8:2, the preparation concentration was 0.3 mg/mL, the solution was in a clarified state, and it was used as intravenous administration solution. In addition, 80 μL mother liquor was accurately measured, and 0.5% CMC-Na was added to 8 mL to grind it into a uniform suspension with a concentration of 0.5 mg/mL, which was used as intragastric administration solution.
(§1) Intravenous group: 24 ICR mice, 20±2 g, were given the intravenous administration solution of the compound of the present disclosure by intravenous injection, with the volume of 10 mL/kg, with the dose of 3 mg/kg, the blood was taken from the fundus venous plexus of mice, 2, 5, 15, 30, 60, 90, 120, 240, 360, 480, 600 and 1440 minutes before and after administration.
as §1, with “Intragastric group:” for “Intravenous group:”, “the intragastric” for “the intravenous”, “by intragastric” for “by intravenous”, “of 20” for “of 10”, “of 10” for “of 3”, “mice,” for “mice, 2,”
Blood sample was centrifuged at 8000 rpm for 5 min, and the plasma was stored in a centrifuge tube at −20° C. for later use.
300 μL of acetonitrile containing internal standard (Propranolol, 25 ng/mL) was added to 50 μL of plasma samples to precipitate protein, vortexed for 10 min, 6000 g, 4° C., centrifuged for 10 min; the supernatant before intravenous injection for 1 hour was taken, diluted 10 times with acetonitrile containing internal standard, the rest supernatant was kept undiluted, centrifuged for 10 min again at 6000 g, 4° C., and the supernatant was taken and then injected into a 96-well plate.
(§2) Dose; peak concentration: Cmax; peak time: Tmax; area under the drug-time curve from AUClast 0 to time t; half-life: T1/2; mean retention time: MRT; clearance: Cl; apparent distribution volume: Vz; steady-state distributed volume: Vss; absolute bioavailability: F.
The pharmacokinetic parameters of the compound in mice after intravenous injection or intragastric administration were shown in Table 4 and Table 5 below.

[3] = Bioavailability test in vivo in cynomolgus monkey (pharmacokinetics, IV and PO); settings: cynomolgus monkeys
Procedure: Twelve male Non-Naïve cynomolgus monkeys were purchased from GuangxiGuidong Primate Development Experiment Co. LTD.
(§3) 54.31 mg of I-8-1 was accurately weighed, and 1.08 mL of DMSO was added, then the mixture was vortexed for 1 min, sonicated for 15 min, and then diluted to 36 mL according to the ratio of 10% HP-β-cyclodextrin (prepared by normal saline): PEG=8:2, vortexed for 1 min. A colorless clarified administration solution (the pH value was about 7) at a concentration of 1.5 mg/mL was prepared for intravenous administration to Group 1.
300.9 mg of I-8-1 was accurately weighed, and 75 mL of 0.5% CMC-Na was added, the mixture was fully ground and stirred for 5 min. A white suspension (the pH value was about 7) at a concentration of 4 mg/mL was prepared for oral administration to Group 2.
as §3, with “54.05 mg” for “54.31 mg”, “of AZD1775” for “of I-8-1”, “then he” for “then the”, “of 10%-D-cyclodextrin” for “of 10% HP-β-cyclodextrin”, “A yellow” for “A colorless”, “Group 3.” for “Group 1.”
300.7 mg of AZD1775 was accurately weighed, and 75 mL of 0.5% CMC-Na was added, the mixture was fully ground and stirred for 5 min. A yellow suspension (the pH value was about 7) at a concentration of 4 mg/mL was prepared for oral administration to Group 4.
Before administration, all animals were fasted overnight (approximately 12 hours) and fed as required and administered according to the table below.
Intravenous group: before administration (0 h), 0.033 h, 0.083 h, 0.25 h, 0.5 h, 1 h, 1.5 h, 2 h, 4 h, 6 h, 8 h, 12 h, 24 h after administration.
Oral group: before administration (0 h), 0.083 h, 0.25 h, 0.5 h, […], 2 h, 4 h, 6 h, 8 h, 12 h, 24 h after administration.
Blood samples were collected by puncture through lower limb vein or other suitable blood vessels at 1 mL/time point (3 mL of blood samples were collected from each animal before administration), anticoagulated with heparin sodium, and placed on ice after collection. Plasma was separated at 2200 g/min, 10 min, 2-8° C., plasma samples were stored in a −80° C. refrigerator before being transferred to the client. Plasma samples are stored in dry ice and transferred to the client. The final treatment of the sample will be recorded in the experimental record.
300 μL of acetonitrile was added to 50 μL of plasma samples containing internal standard (Propranolol, 25 ng/mL) to precipitate protein, vortexed for 10 min, centrifuged at 6000 g for 10 min, after I-8-1&AZD1775 intravenous injection group was diluted 10 times with internal standard acetonitrile (Propranolol, 25 ng/mL) at the time point before 1 hour, the remaining supernatant was not diluted, centrifuged again at 6000 g at 4° C. for 10 min, and the supernatant was taken and injected into a 96 well plate.
as §2
The pharmacokinetic parameters of the compound in cynomolgus monkeys after intravenous injection or intragastric administration were shown in Table 6 below.

[4] = ICR, mouse, plasma, iv, 3 mg/kg
[5] = ICR, mouse, plasma, po (intragastric), 10 mg/kg
[6] = male, cynomolgus monkey, plasma, iv, 3 mg/kg
[7] = male, cynomolgus monkey, plasma, po, 20 mg/kg, fasted

T1 sequence (P30291 whole entry): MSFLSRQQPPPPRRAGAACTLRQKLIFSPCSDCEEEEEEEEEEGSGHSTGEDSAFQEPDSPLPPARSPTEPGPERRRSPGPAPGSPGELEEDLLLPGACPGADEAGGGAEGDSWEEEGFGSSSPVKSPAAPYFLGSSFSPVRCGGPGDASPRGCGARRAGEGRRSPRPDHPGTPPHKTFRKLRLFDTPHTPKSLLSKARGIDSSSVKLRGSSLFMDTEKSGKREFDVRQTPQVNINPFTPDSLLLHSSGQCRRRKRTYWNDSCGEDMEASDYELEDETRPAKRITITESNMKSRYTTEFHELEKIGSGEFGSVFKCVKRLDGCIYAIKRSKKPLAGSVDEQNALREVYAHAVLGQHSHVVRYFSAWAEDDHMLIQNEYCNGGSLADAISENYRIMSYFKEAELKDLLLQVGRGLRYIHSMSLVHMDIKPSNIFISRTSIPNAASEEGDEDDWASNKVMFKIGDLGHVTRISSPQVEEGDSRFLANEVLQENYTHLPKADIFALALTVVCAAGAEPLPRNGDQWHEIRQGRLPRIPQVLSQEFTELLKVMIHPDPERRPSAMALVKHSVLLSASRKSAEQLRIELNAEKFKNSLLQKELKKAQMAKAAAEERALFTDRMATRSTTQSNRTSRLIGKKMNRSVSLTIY

C=CCn1c(=O)c2cnc(Nc3ccc(C4CCC(N(C)C)CC4)cc3)nc2n1-c1cccc(C(C)(C)O)n1 (single isomer, unassigned) [Compound I-1-2]
IC50 [1]: 2.08 nM

C=CCn1c(=O)c2cnc(Nc3ccc(C4CCC(N5CCC5)CC4)cc3)nc2n1-c1cccc(C(C)(C)O)n1 (single isomer, unassigned) [Compound I-8-2]
IC50 [1]: 3.52 nM

C=CCn1c(=O)c2cnc(Nc3ccc(C4CCC(C(=O)N(C)C)CC4)cc3)nc2n1-c1cccc(C(C)(C)O)n1 (stereo not shown) [Compound I-6]
IC50 [1]: 6.76 nM

C=CCn1c(=O)c2cnc(Nc3ccc(C4CCC(NC)CC4)cc3)nc2n1-c1cccc(C2(O)COC2)n1 (stereo not shown) [Compound I-33]
IC50 [1]: 4.22 nM

C=CCn1c(=O)c2cnc(Nc3ccc(C4CCC(N(C)C(=O)C5CC5)CC4)cc3)nc2n1-c1cccc(C2(O)COC2)n1 (stereo not shown) [Compound I-34]
IC50 [1]: 3.3 nM

C=CCn1c(=O)c2cnc(Nc3ccc(C4CCC(C(=O)NC5CC5)CC4)cc3)nc2n1-c1cccc(C(C)(C)O)n1 (stereo not shown) [Compound I-17]
IC50 [1]: 4.05 nM

C=CCn1c(=O)c2cnc(Nc3ccc(C4CCC(N(C)C)CC4)cc3)nc2n1-c1cccc(C2(O)COC2)n1 (single isomer, unassigned) [Compound I-15-1]
IC50 [1]: 1.52 nM

C=CCn1c(=O)c2cnc(Nc3ccc(C4CCC(C(=O)O)CC4)cc3)nc2n1-c1cccc(C2(O)COC2)n1 (stereo not shown) [Compound I-40]
IC50 [1]: 4.58 nM

C=CCn1c(=O)c2cnc(Nc3ccc(C4CCC(N5CCCC5)CC4)cc3)nc2n1-c1cccc(C(C)(C)O)n1 (single isomer, unassigned) [Compound I-3-2]
IC50 [1]: 0.66 nM

C=CCn1c(=O)c2cnc(Nc3ccc(C4CCC(=NOC)CC4)cc3)nc2n1-c1cccc(C(C)(C)O)n1 (stereo not shown) [Compound I-32]
IC50 [1]: 7.39 nM

C=CCn1c(=O)c2cnc(Nc3ccc(C4CCC(C#N)CC4)cc3)nc2n1-c1cccc(C(C)(C)O)n1 (stereo not shown) [Compound I-23]
IC50 [1]: 0.71 nM

C=CCn1c(=O)c2cnc(Nc3ccc(N4CCN(C)CC4)cc3)nc2n1-c1cccc(C(C)(C)O)n1 [Control 1, reference compound]
Cmax [2, 4]: 774 ± 53.8 ng/mL | MRT [2, 4]: 0.42 ± 0.02 h | Tmax [2, 4]: 0.05 ± 0.03 h | clearance [2, 4]: 183 mL/min/kg | half-life [2, 4]: 0.65 ± 0.03 h | Vd ([2]; ICR, mouse, plasma, iv, 3 mg/kg, iv, 3 mg/kg, read-out: Vss): 4.58 ± 0.44 L/kg | Vd ([2]; ICR, mouse, plasma, iv, 3 mg/kg, iv, 3 mg/kg, read-out: Vz): 10.3 ± 1.12 L/kg | bioavailability ([2]; ICR, mouse, plasma, po 10 mg/kg vs iv 3 mg/kg, read-out: F (absolute bioavailability)): 16.7% | Cmax [2, 5]: 205 ± 124 ng/mL | MRT [2, 5]: 4.33 ± 0.28 h | Tmax [2, 5]: 0.33 ± 0.14 h | half-life [2, 5]: 3.1 ± 0.22 h | AUClast ([2]; iv, 3 mg/kg): 273.1 ± 21.34 (h) (ng/mL) | AUClast ([2]; po (intragastric), 10 mg/kg): 151.7 ± 62.14 (h) (ng/mL) | AUCextra ([3]; iv, 3 mg/kg): 47.62 ± 58.18 (h)*(ng/mL) | AUClast ([3]; iv, 3 mg/kg): 4494 ± 1719 (h)*(ng/mL) | AUCtot ([3]; iv, 3 mg/kg): 4542 ± 1777 (h)*(ng/mL) | thalf ([3]; iv, 3 mg/kg): 2.78 ± 0.26 h | AUCextra ([3]; po, 20 mg/kg, fasted): 8.46 ± 1.91 (h)*(ng/mL) | AUClast ([3]; po, 20 mg/kg, fasted): 8155 ± 818.2 (h)*(ng/mL) | AUCtot ([3]; po, 20 mg/kg, fasted): 8163 ± 819.7 (h)*(ng/mL) | thalf ([3]; po, 20 mg/kg, fasted): 2.03 ± 1.22 h | Vd ([3]; male, cynomolgus monkey, plasma, iv, 3 mg/kg, iv, 3 mg/kg, read-out: Vss): 4.33 ± 0.74 L/kg | Vd ([3]; male, cynomolgus monkey, plasma, iv, 3 mg/kg, iv, 3 mg/kg, read-out: Vz): 2.84 ± 0.76 L/kg | Cmax [3, 6]: 1200 ± 134 ng/mL | MRT [3, 6]: 6.53 ± 2.51 h | Tmax [3, 6]: 2.69 ± 4.6 h | clearance [3, 6]: 12 mL/min/kg | bioavailability ([3]; male, cynomolgus monkey, plasma, po 20 mg/kg vs iv 3 mg/kg, read-out: BA (absolute bioavailability)): 27.2% | Cmax [3, 7]: 1630 ng/mL | MRT [3, 7]: 3.58 ± 0.07 h | Tmax [3, 7]: 2 h

— US12612408B2, “Pyrazolone-fused pyrimidine compound, preparation method for same and applications thereof” (SHANGHAI PHARMACEUTICALS HOLDING CO., LTD., priority 2019, dated 2026)
